Experimental data published in patent US8691764B2, “Inhibitors of NF-κB activity” (The Research Foundation for the State University of New York, priority 2007, dated 2014).

How the values were obtained:
NF-κB [1] = assay: NF-κB activity ELISA, HT-29 cells; type: cell-based, human; conditions: 3 h
HT-29 cells = assay: Apoptosis, Cell Death Detection ELISA, HT-29 cells; type: cell-based, human
Protocol: Apoptosis was determined using the Cell Death Detection ELISA^PLUS assay kit according to the manufacturer's protocol (Roche, Indianapolis, Ind.). Briefly, the cells were treated with either NO-ASA or Dex for 3 h. Cells were harvested and washed three times with PBS. The cell pellet was resuspended with lysis buffer and incubated for 30 min at RT. Cell […] at 200×g for 10 min. The ELISA assay was performed using 20 μl cell lysate and 80 μl Immunoreagent (containing 72 μl Incubation Buffer, 4 μl Anti-histone-biotin Solution, and 4 μl Anti-DNA-POD Solution) per micro-plate well. The micro-plate was covered with an adhesive foil and incubated on a shaker under gentle shaking at 200 rpm for 2 h at RT. The solution in each well was removed thoroughly by tapping and the pellets were rinsed three times with 200 μl Incubation Buffer. […] The absorbance was measured at 405 nm using the SpectraMax micro-plate reader (Molecular Devices, Sunnyvale).
Briefly, annexin 1 cDNA clones (OreGen) or the PCMV6XL5 vector, as a negative control, were transiently transfected into BxPC-3 cells grown to 40-60% confluency using Lipofectamine according to the product protocol (Invitrogen). […] NF-κB activity was subsequently measured by the TransBinding NF-κB Assay Kit and ELISA as described in Example 2. […]

NF-κB p65 [2] = assay: Confocal microscopy co-localization of annexin 1 and p65, BxPC-3 cells; type: cell-based, human; conditions: 3 h, NO-ASA 20 μM or Dex 4 μM
Protocol: BxPC-3 cells were seeded on cover-glasses in a 12-well plate for 24 h. The cells were exposed to 10 or 20 μM NO-ASA or 2 or 4 μM Dex for 3 h, fixed with 4% paraformaldehyde in PBS containing 30 mM sucrose, permeabilized with 0.2% saponin in PBS containing 30 mM sucrose, and blocked with 5% normal goat serum in PBS containing 1% BSA. The cells were incubated with mouse monoclonal IgG2b anti-annexin 1 (Santa Cruz Biotechnology) and rabbit monoclonal IgG anti-p65 (Cell Signaling, MA) at RT for 1 h. After three washes with PBS containing 1% BSA, the cells were incubated with Alexa555 conjugated donkey anti-mouse IgG (Molecular Probes) and Alexa 488 conjugated goat anti-rabbit IgG (Molecular Probes) at RT for an hour. Images were acquired with a Zeiss LSM 510 META NLO Two-Photon Laser Scanning Image Confocal Microscope and the colocalization scores were generated by the Colocalization Macro program. The control experiments were performed using non-specific mouse IgG2b and/or rabbit IgG. Red fluorescence localized annexin 1, green fluorescence localized p65 (NF-κB) and co-localization of the two proteins generated yellow fluorescence.

Bcl-xL = assay: NF-κB dependent gene (Bcl-xL) expression in epithelial cells of treated mice; type: in vivo; conditions: wild-type and Min mice
Protocol: To assess whether these changes occur in vivo, the inventors studied isolated small intestine epithelial cells from Min mice and the corresponding wild type mice C57BL/6J (of which the Min mice are a congenic derivative) treated with NO-ASA 100 mg/kg or Dex 10 mg/kg daily for 7 days. Min (multiple intestinal neoplasia), a mutant allele of the murine APC (adenomatous polyposis coli) locus, encodes a nonsense mutation at codon 850. Heterozygous Min mutants spontaneously develop tumors in the intestine and represent a model of intestinal carcinogenesis (M. Lipkin et al., Ann. N.Y. Acad. Sci. 889:14-19 (1999); A. Moser, H. Pitot, W. Dove, Science 247:322-324 (1990)). The levels of annexin 1 were increased in both Min and wild-type mice treated with either NO-ASA or Dex (FIG. 7A and FIG. 8A). The induction of annexin 1 by NO-ASA or Dex was accompanied by the inhibition of NF-κB activity (FIGS. 7B and 8B).

NF-κB p65 [3] = assay: Co-immunoprecipitation of annexin 1 with p65, HT-29 cells; type: cell-based, human; conditions: 3 h, NO-ASA 20 μM or Dex 4 μM
Protocol: (§1) The gel shift assays were carried out according to the manufacturer's protocol (Panomics). Nuclear proteins (10 μg) from each sample were mixed with 10 ng biotinylated p65 double-stranded oligonucleotide probes (5′-[…]-3′ and its complement) (SEQ ID NO:9) in the presence of 1 μg Poly(I/C) DNA. The mixture was incubated at room temperature for 30 min. The binding complex was then resolved using a 6% polyacrylamide/glycerol gel in 0.5% Tris-borate-EDTA, transferred onto a nylon membrane, and fixed on the membrane by UV cross-linking The biotin-labeled probe was detected with streptavidin-horseradish peroxidase. Co-immunoprecipitation was performed as follows: about 500 μg of cell extracts were incubated overnight with 5 μg of agarose-conjugated anti-p65 (Santa Cruz Biotechnology) or anti-annexin 1 antibody (Santa Cruz, Calif.). The precipitate was washed five times with washing buffer (Santa Cruz Biotechnology), dissolved in 2× Laemmli buffer, boiled, and separated by SDS-PAGE and detected by Western blot analysis using ECL™ (Amersham Biosciences) as described above. Control experiments were performed by using rabbit IgG for p65 and mouse IgG2b for annexin 1, respectively (Santa Cruz Biotechnology).

NF-κB [4] = assay: EMSA of NF-κB binding to κB probe, nuclear extract of treated BxPC-3 cells; type: cell-based, human; conditions: BxPC-3 nuclear extract, 3 h
Protocol: as §1, with “Biotechnology). […]” for “Biotechnology).”

How did the NF-κB activity (NF-κB [1]) turn out when nitric oxide-donating aspirin [NO-ASA] was run?
Its NF-κB activity is “inhibited NF-κB activity in a concentration-dependent manner”.

And the “induced cell apoptosis after knock-down of annexin 1 by specific siRNA” value (HT-29 cells; HT-29 cells (FIG. 3D))?
Its value is “completely abrogated”.

And the cell apoptosis (HT-29 cells; HT-29 cells, 3 h)?
Its cell apoptosis is “induced”.

What about the “co-localization of annexin 1 and p65” value (NF-κB p65 [2]) of the same substance?
The value was “co-localize most strongly in the nucleus”.

And the “NF-κB dependent gene expression (Bcl-xL)” value (Bcl-xL)?
Its value is “inhibited NF-κB dependent gene expression”.

And the “co-immunoprecipitation of annexin 1 with p65” value (NF-κB p65 [3])?
Its value is “co-immunoprecipitated with p65”.

What about the “binding of NF-κB to the DNA probe (EMSA)” value (NF-κB [4]) of the same substance?
Its value is “inhibited the binding of NF-κB to the DNA probe in a concentration-dependent manner”.

And the “binding of NF-κB to the DNA probe (EMSA) at 20 μM” value (NF-κB [4]; 20 μM NO-ASA)?
Its value is “substantial suppression of binding”.
